From PubChem BioAssay (NCI)
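Values below derive from 48-hour exposures of cells grown in 96-well plates, with endpoints linearly interpolated between the two concentrations bracketing the appropriate inhibition level. GI50: concentration for 50% inhibition of growth. TGI denotes the concentration required for complete inhibition of growth.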

Legend:
Test in all cases: inhibition of tumour cell growth, NCI panel, 48 h
CAKI-1 renal = system: CAKI-1 renal
HCC-2998 colon = system: HCC-2998 colon
HCT-116 colon = system: HCT-116 colon
HOP-62 NSCLC = system: HOP-62 NSCLC
MCF7 breast = system: MCF7 breast
RPMI-8226 leukemia = system: RPMI-8226 leukemia
SR leukemia = system: SR leukemia
U251 CNS = system: U251 CNS
UACC-257 melanoma = system: UACC-257 melanoma
UO-31 renal = system: UO-31 renal

| SMILES | GI50 (CAKI-1 renal) | TGI (CAKI-1 renal) | GI50 (HCC-2998 colon) | TGI (HCC-2998 colon) | GI50 (HCT-116 colon) | TGI (HCT-116 colon) | GI50 (HOP-62 NSCLC) | TGI (HOP-62 NSCLC) | GI50 (MCF7 breast) | TGI (MCF7 breast) | GI50 (RPMI-8226 leukemia) | TGI (RPMI-8226 leukemia) | GI50 (SR leukemia) | TGI (SR leukemia) | GI50 (U251 CNS) | TGI (U251 CNS) | GI50 (UACC-257 melanoma) | TGI (UACC-257 melanoma) | GI50 (UO-31 renal) | TGI (UO-31 renal) |
| --- | --- | --- | --- | --- | --- | --- | --- | --- | --- | --- | --- | --- | --- | --- | --- | --- | --- | --- | --- | --- |
| CC(=O)NCc1cccc(C#Cc2cncnc2Nc2ccc(OCc3cccc(F)c3)c(Cl)c2)c1 | 2.04 µM | > 23.7 µM | 9.04 µM | > 25 µM | 9.05 µM | > 25 µM | > 25 µM | > 25 µM | 9.18 µM | > 25 µM | 15.4 µM | > 25 µM | > 25 µM | > 25 µM | 11 µM | > 25 µM | 12.3 µM | > 25 µM | 3.25 µM | > 21.1 µM |
| Oc1c(I)cc(I)c2cccnc12 | 3.17 µM | 14.2 µM | 2.44 µM | 7.34 µM | 3.09 µM | 13.5 µM | 4.85 µM | 26.8 µM | 3.89 µM | 19.9 µM | 6.96 µM | > 100 µM | 5.75 µM | > 100 µM | 3.74 µM | 25.3 µM | 3.53 µM | 35.5 µM | 2.17 µM | 21.4 µM |
| Oc1cccc2ccc(N/N=C/c3cc(CN4CCOCC4)c(O)c4ncccc34)nc12 | 0.0506 µM | 1.59 µM | 0.0368 µM | 1.93 µM | 0.0223 µM | 2.77 µM | 0.0281 µM | 1.44 µM | 0.021 µM | 1.54 µM | 0.0154 µM | 10.5 µM | 0.0332 µM | 4.38 µM | < 0.0154 µM | 3.74 µM | 0.0368 µM | 0.44 µM | 0.0124 µM | 1.24 µM |
| N#CC1=C(/N=C/c2ccccc2)Oc2c(ccc3ccccc23)C1c1ccccc1 (centres undefined) | 0.31 µM | > 53.7 µM | 1.2 µM | > 67.9 µM | 0.427 µM | > 47.8 µM | 0.646 µM | > 100 µM | 0.421 µM | > 100 µM | 0.441 µM | > 100 µM | 0.409 µM | > 100 µM | 0.527 µM | > 100 µM | > 100 µM | > 100 µM | 0.452 µM | > 100 µM |
| O=C(O)CCC(=O)c1ccc2sc3ccccc3c2c1 |  | > 100 µM |  |  |  | > 100 µM |  | > 100 µM |  | > 100 µM |  | > 100 µM |  | > 100 µM |  | > 100 µM |  | > 100 µM |  | > 100 µM |
| COc1cc(/C=C/C(=O)c2cccc(-n3cc(-c4ccc(Cl)cc4)[nH]c3=O)c2)cc(OC)c1OC | 15.6 µM | 95.5 µM | 2.46 µM | 7.36 µM | 1.39 µM | 2.68 µM | 23.6 µM | 57.3 µM | 1.74 µM | 5.75 µM | 3.92 µM | > 100 µM | 3.03 µM | > 100 µM | 2.12 µM | 4.62 µM | 17.4 µM | 90.9 µM | 7.03 µM | 21.3 µM |
